Test results from PubChem BioAssay AID328 (DTP/NCI, 2004).
Values joined by “and” are separate entries in the source; they are usually repeats but may differ in a detail not shown here. Equal values may be shown once. Inconclusive results and toxic doses are left out. Residues, ends and D or L forms follow the SMILES beside them.

Tested on: BDF1 mice, P388 leukemia ip, median survival T/C
Assay: NCI In Vivo Anticancer Drug Screen. Data for tumor model P388 Leukemia (intraperitoneal) in B6D2F1 (BDF1) mice
Settings: endpoint: median survival time, higher = longer survival
Outline: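 Reported as T/C, where T is the survival measurement in dosed animals and C the same measurement in vehicle controls.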

[1] = dose: 12.5 mg/kg/injection, schedule: Q04DX003 (ip), vehicle: saline
[2] = dose: 25.0 mg/kg/injection, schedule: Q04DX003 (ip), vehicle: saline
[3] = dose: 50.0 mg/kg/injection, schedule: Q01DX009 (ip), vehicle: saline
[4] = dose: 50.0 mg/kg/injection, schedule: Q04DX003 (ip), vehicle: saline
[5] = dose: 25.0 mg/kg/injection, schedule: Q01DX009 (ip), vehicle: water
[6] = dose: 50.0 mg/kg/injection, schedule: Q01DX009 (ip), vehicle: water
[7] = dose: 100.0 mg/kg/injection, schedule: Q01DX009 (ip), vehicle: water
[8] = dose: 200.0 mg/kg/injection, schedule: Q01DX009 (ip), vehicle: water

SMILES: Cc1c2cc3c(cc2cc2c4cc5c(cc4cc[n+]12)OCO5)OCO3 (tested in a mixture with another compound)
- T/C (dose: 3.0 mg/kg/injection, schedule: Q04DX003 (ip), vehicle: saline): 159 % of control
- T/C (dose: 3.13 mg/kg/injection, schedule: Q01DX009 (ip), vehicle: saline): 98 % of control
- T/C (dose: 5.56 mg/kg/injection, schedule: Q04DX003 (ip), vehicle: saline): 150 % of control and 177 % of control
- T/C (dose: 6.25 mg/kg/injection, schedule: Q01DX009 (ip), vehicle: saline): 89 % of control
- T/C (dose: 6.25 mg/kg/injection, schedule: Q04DX003 (ip), vehicle: saline): 170 % of control
- T/C (dose: 8.33 mg/kg/injection, schedule: Q04DX003 (ip), vehicle: saline): 172 % of control and 200 % of control
- T/C [1]: 150 % of control and 177 % of control and 190 % of control
- T/C (dose: 18.7 mg/kg/injection, schedule: Q04DX003 (ip), vehicle: saline): 113 % of control
- T/C [2]: 95 % of control

SMILES: N=C(N)SCc1c2ccccc2c(CSC(=N)N)c2ccccc12
- T/C (dose: 2.5 mg/kg/injection, schedule: Q01DX010 (ip), vehicle: saline): 183 % of control
- T/C (dose: 5.0 mg/kg/injection, schedule: Q01DX010 (ip), vehicle: saline): 220 % of control
- T/C (dose: 10.0 mg/kg/injection, schedule: Q01DX010 (ip), vehicle: saline): 235 % of control and 195 % of control
- T/C (dose: 20.0 mg/kg/injection, schedule: Q01DX010 (ip), vehicle: saline): 208 % of control and 215 % of control

SMILES: O=C1/C(=C/c2ccccc2)CCCC1/C=C/c1ccccc1 (stereo unspecified)
- T/C (dose: 100.0 mg/kg/injection, schedule: Q04DX003 (ip), vehicle: Klucel (hydroxypropylcellulose) (HPC)): 100 % of control
- T/C (dose: 200.0 mg/kg/injection, schedule: Q04DX003 (ip), vehicle: Klucel (hydroxypropylcellulose) (HPC)): 104 % of control
- T/C (dose: 400.0 mg/kg/injection, schedule: Q04DX003 (ip), vehicle: Klucel (hydroxypropylcellulose) (HPC)): 104 % of control

SMILES: Cc1cc2c(C(C)C)c(O)c(O)cc2c(O)c1-c1c(C)cc2c(C(C)C)c(O)c(O)cc2c1O
- T/C (dose: 12.5 mg/kg/injection, schedule: Q01DX009 (ip), vehicle: saline with Tween-80): 91 % of control
- T/C (dose: 25.0 mg/kg/injection, schedule: Q01DX009 (ip), vehicle: saline with Tween-80): 100 % of control
- T/C (dose: 50.0 mg/kg/injection, schedule: Q01DX009 (ip), vehicle: saline with Tween-80): 120 % of control

SMILES: CC1(C)N=C(N)N=C(N)N1c1cccc(OCCOc2ccc([N+](=O)[O-])cc2)c1
- T/C (dose: 50.0 mg/kg/injection, schedule: Q01DX009 (ip), vehicle: saline sonified): 110 % of control
- T/C (dose: 50.0 mg/kg/injection, schedule: Q04DX003 (ip), vehicle: saline sonified): 100 % of control
- T/C (dose: 100.0 mg/kg/injection, schedule: Q01DX009 (ip), vehicle: saline sonified): 160 % of control
- T/C (dose: 100.0 mg/kg/injection, schedule: Q04DX003 (ip), vehicle: saline sonified): 107 % of control
- T/C (dose: 200.0 mg/kg/injection, schedule: Q04DX003 (ip), vehicle: saline sonified): 107 % of control

SMILES: CN(C)CCSC1=CC(=O)c2ccccc2C1=O
- T/C (dose: 0.19 mg/kg/injection, schedule: Q01DX009 (ip), vehicle: water): 116 % of control
- T/C (dose: 0.19 mg/kg/injection, schedule: Q04DX003 (ip), vehicle: water): 95 % of control
- T/C (dose: 0.39 mg/kg/injection, schedule: Q01DX009 (ip), vehicle: water): 109 % of control
- T/C (dose: 0.39 mg/kg/injection, schedule: Q04DX003 (ip), vehicle: water): 105 % of control
- T/C (dose: 0.78 mg/kg/injection, schedule: Q01DX009 (ip), vehicle: water): 110 % of control
- T/C (dose: 0.78 mg/kg/injection, schedule: Q04DX003 (ip), vehicle: water): 104 % of control
- T/C (dose: 1.56 mg/kg/injection, schedule: Q01DX009 (ip), vehicle: water): 109 % of control
- T/C (dose: 1.56 mg/kg/injection, schedule: Q04DX003 (ip), vehicle: water): 106 % of control
- T/C (dose: 3.12 mg/kg/injection, schedule: Q04DX003 (ip), vehicle: water): 95 % of control

SMILES: CN=C(c1ccc(NC(=O)c2ccc(C(=O)Nc3ccc(C(=NC)N(C)C)cc3)cc2)cc1)N(C)C
- T/C (dose: 2.0 mg/kg/injection, schedule: Q01DX010 (ip), vehicle: water): 110 % of control
- T/C (dose: 4.0 mg/kg/injection, schedule: Q01DX010 (ip), vehicle: water): 115 % of control

SMILES: CN1C(=O)C(Br)=C(c2cccs2)C1=O
- T/C (dose: 25.0 mg/kg/injection, schedule: Q01DX001 (ip), vehicle: saline with Tween-80): 109 % of control
- T/C (dose: 50.0 mg/kg/injection, schedule: Q01DX001 (ip), vehicle: saline with Tween-80): 103 % of control

SMILES: N#Cc1cn[nH]c1N
- T/C [3]: 100 % of control
- T/C (dose: 100.0 mg/kg/injection, schedule: Q01DX009 (ip), vehicle: saline): 109 % of control
- T/C (dose: 200.0 mg/kg/injection, schedule: Q01DX009 (ip), vehicle: saline): 98 % of control

SMILES: O=S(=O)(O)O.[W]
- T/C (dose: 0.75 mg/kg/injection, schedule: Q01DX009 (ip), vehicle: saline): 96 % of control
- T/C (dose: 3.0 mg/kg/injection, schedule: Q01DX009 (ip), vehicle: saline): 90 % of control

SMILES: O=C(Cn1ccc(=O)[nH]c1=O)c1ccc([N+](=O)[O-])o1
- T/C [2]: 109 % of control
- T/C [4]: 100 % of control

SMILES: C(=Nc1ccc2c(c1)Cc1ccccc1-2)c1ccc2ccccc2c1
- T/C (dose: 12.5 mg/kg/injection, schedule: Q04DX002 (ip), vehicle: saline with Tween-80): 103 % of control
- T/C (dose: 25.0 mg/kg/injection, schedule: Q04DX002 (ip), vehicle: saline with Tween-80): 94 % of control
- T/C (dose: 50.0 mg/kg/injection, schedule: Q04DX002 (ip), vehicle: saline with Tween-80): 97 % of control

SMILES: NCCCCC(N)C(=O)NC(CCCN=C(N)N)C(=O)O (stereo not drawn) (H-Lys-Arg-OH; configuration not given here)
- T/C (dose: 3.12 mg/kg/injection, schedule: Q01DX009 (ip), vehicle: water): 101 % of control
- T/C (dose: 6.25 mg/kg/injection, schedule: Q01DX009 (ip), vehicle: water): 97 % of control and 99 % of control and 117 % of control
- T/C (dose: 12.5 mg/kg/injection, schedule: Q01DX009 (ip), vehicle: water): 105 % of control and 109 % of control
- T/C [5]: 101 % of control and 104 % of control and 118 % of control
- T/C [6]: 93 % of control and 94 % of control and 95 % of control
- T/C [7]: 90 % of control and 100 % of control and 113 % of control
- T/C [8]: 109 % of control

SMILES: O=c1oc2c(CN3CCCC3)c(O)ccc2c2c1CCCC2
- T/C (dose: 1.0 mg/kg/injection, schedule: Q01DX009 (ip), vehicle: Klucel (hydroxypropylcellulose) (HPC)): 98 % of control
- T/C (dose: 2.0 mg/kg/injection, schedule: Q01DX009 (ip), vehicle: Klucel (hydroxypropylcellulose) (HPC)): 109 % of control
- T/C (dose: 4.0 mg/kg/injection, schedule: Q01DX009 (ip), vehicle: Klucel (hydroxypropylcellulose) (HPC)): 104 % of control
- T/C (dose: 8.0 mg/kg/injection, schedule: Q01DX009 (ip), vehicle: Klucel (hydroxypropylcellulose) (HPC)): 109 % of control
- T/C (dose: 16.0 mg/kg/injection, schedule: Q01DX009 (ip), vehicle: Klucel (hydroxypropylcellulose) (HPC)): 98 % of control
- T/C (dose: 32.0 mg/kg/injection, schedule: Q01DX009 (ip), vehicle: Klucel (hydroxypropylcellulose) (HPC)): 99 % of control

SMILES: O=C(NC(CO)C(O)c1ccc([N+](=O)[O-])cc1)C(Cl)Cl (stereo unspecified)
- T/C (dose: 100.0 mg/kg/injection, schedule: Q04DX003 (ip), vehicle: saline with Tween-80): 104 % of control
- T/C (dose: 200.0 mg/kg/injection, schedule: Q04DX003 (ip), vehicle: saline with Tween-80): 100 % of control
- T/C (dose: 400.0 mg/kg/injection, schedule: Q04DX003 (ip), vehicle: saline with Tween-80): 109 % of control

SMILES: COc1ccc(/C=C/C(=O)c2ccc(OC)c(OCc3ccccc3)c2)cc1OC
- T/C [5]: 97 % of control
- T/C [6]: 100 % of control and 121 % of control
- T/C (dose: 50.0 mg/kg/injection, schedule: Q04DX003 (ip), vehicle: water): 100 % of control
- T/C [7]: 100 % of control and 111 % of control
- T/C (dose: 100.0 mg/kg/injection, schedule: Q04DX003 (ip), vehicle: water): 94 % of control
- T/C [8]: 95 % of control and 101 % of control
- T/C (dose: 200.0 mg/kg/injection, schedule: Q04DX003 (ip), vehicle: water): 86 % of control
- T/C (dose: 400.0 mg/kg/injection, schedule: Q01DX009 (ip), vehicle: water): 97 % of control
- T/C (dose: 400.0 mg/kg/injection, schedule: Q04DX003 (ip), vehicle: water): 88 % of control
- T/C (dose: 600.0 mg/kg/injection, schedule: Q01DX009 (ip), vehicle: water): 91 % of control

SMILES: NC(=O)NNC(N)=O
- T/C [1]: 105 % of control
- T/C (dose: 25.0 mg/kg/injection, schedule: Q01DX009 (ip), vehicle: saline): 100 % of control
- T/C [2]: 116 % of control
- T/C [3]: 100 % of control
- T/C [4]: 100 % of control
- T/C (dose: 75.0 mg/kg/injection, schedule: Q04DX003 (ip), vehicle: saline): 100 % of control
- T/C (dose: 115.0 mg/kg/injection, schedule: Q04DX003 (ip), vehicle: saline): 86 % of control
- T/C (dose: 170.0 mg/kg/injection, schedule: Q04DX003 (ip), vehicle: saline): 90 % of control
